Test results reported in ChEMBL document CHEMBL3507680, “University of Dundee, Gates Library screen for HepG2 cell viability”.

Test: Human HepG2 cell viability assay in 384 well format
Format: toxicity, cell-based
Parameters: dose 125 nL, time 70.5 hour; cytotoxicity at 70.5 h: concentration not given beside the values
Conditions: HepG2 cells, read-out: Inhibition

Compound	cytotoxicity at 70.5 h [%]
CCn1ccnc1CN(C)Cc1nc(CCC(C)C)no1	1.4
O=C(c1cccc(S(=O)(=O)NCCc2cscn2)c1)N1CCOCC1	-1.05
COc1ccccc1OC1CCN(c2nccc(N)n2)CC1	19.5
O=C1NC[C@@]2(C(=O)O)CN(Cc3ccc(Oc4ccccc4)cc3)C[C@@H]12	-1.43
O=C(CCC1CCCN(C(=O)CCc2ccc(F)c(F)c2)C1)NC1CC1 (stereo unspecified)	-8.38
COc1cc(CN2CCC(O)(c3ccc(C)cn3)CC2)cc(Cl)c1OC	17.5
NC(=O)c1cccnc1N1CCN(c2ncnc3c2CCNC3)CC1	-1.91
Cc1cnc(NCCc2c[nH]cn2)nc1-c1ccnn1C	-11.6
O=C1N(CC2CCC2)CCCC12CCN(S(=O)(=O)c1cccnc1)C2 (stereo unspecified)	-4.23
COc1ccccc1-c1ncc(CN2C[C@H](O)[C@@H](N3CCCC3)C2)s1	-14.6
Cn1ccc(C(=O)N2CCCN(CCCc3ccccc3)CC2)cc1=O	-17.2
Cc1ccc2cc(CN(C)Cc3ncc[nH]3)c(=O)[nH]c2c1	26.6
Cc1ccc(C)c(C(=O)N2CCOC(CCN(C)C)C2)c1 (stereo unspecified)	-9.2
COc1ccc(Cl)cc1NC(=O)CCC1CCCN(Cc2ncon2)C1 (stereo unspecified)	-1.15
COCc1ncc(CN2CC(Oc3c(C)cccc3C)C2)cn1	-0.994
COCC1(NC(=O)Nc2nc(C)ns2)CCCC1	-13.9
COCC(=O)N1C[C@H]2CNC[C@@]2(C(=O)NCc2cccc3[nH]ccc23)C1	-3.16
CSc1nccc(N2C[C@@H]3CC[C@H](C2)N(CC2CCC2)C3=O)n1	13
COc1ccc(F)c(CN2CCCC(O)(CNCc3ccoc3)C2=O)c1 (stereo unspecified)	-0.0121
CN(CC1(CO)CCC1)C(=O)C1CCC(=O)N(Cc2ccc(Cl)cc2)C1 (stereo unspecified)	-1.24
Cc1ccsc1S(=O)(=O)N1CCc2c(c(C(=O)O)nn2CC2CC2)C1	-7.3
O=C1CN(Cc2cc(O)c3cccc(F)c3n2)CCN1C1CCCC1	5.5
COC(=O)c1ccc(N2CCN(C(=O)c3ccn(C)c(=O)c3)CC2)cc1	1.93

Compound	cytotoxicity at 70.5 h [%]
CN(Cc1ccccc1)C1(C(=O)NC(C)(C)CO)Cc2ccccc2C1	2.66
O=S(=O)(c1ccc(-c2cnco2)cc1)N1CCCC2(CCNCC2)CC1	0.207
Nc1ccc(C(=O)N2C[C@@H]3CC[C@H](C2)N(Cc2ccccc2)C3)cn1	-2.24
CC(C)N1CCOC(Cc2nn3c(Cc4ccccc4)nnc3s2)C1 (stereo unspecified)	-18.2
CN(Cc1ccco1)c1ccc(-c2nccn2C)nn1	9.03
Nc1nccc(N[C@H]2CN(CC(=O)NC3CCCCC3)C[C@@H]2C2CC2)n1	5.92
Cn1cc(Cl)c(C(=O)N2CCCN(C3Cc4ccccc4C3)CC2)n1	47.8
COc1cc(F)ccc1-c1ncccc1NC(=O)C(C)C	-7.03
CCS(=O)(=O)CCNCc1cc(O)c2cc(C)cc(C)c2n1	0.215
c1cnc(N2CCC(C3CCN(CCCn4cccn4)C3)CC2)nc1 (stereo unspecified)	0.616
CSCCCN1CCC[C@]2(C(=O)O)CN(c3cnccn3)CC[C@@H]12	26.4
CC(O)c1cn(C2CCN(C(=O)C3(C)CCN(C)CC3)CC2)nn1 (stereo unspecified)	-10.9
NC(=O)c1cc(-n2cc(-c3cccc(C(=O)O)c3)cn2)cs1	-9.85
COc1cccc(C(=O)N2CCN(C(=O)CCCn3ccnc3)CC2)c1	26.1
CC(C)n1cnnc1Cn1c(=O)ccc2ccccc21	-2.43
CC(C)OCCCNC(=O)[C@@]12CNC[C@@H]1CN(S(C)(=O)=O)C2	13.6
CC(=O)NCCCC(=O)N1CCc2[nH]c(-c3ccccc3)nc2C1	-5.92
NC(=O)N1CCCC(C(=O)NCCc2nc(Cc3ccccc3)no2)C1 (stereo unspecified)	-17.9
COc1ccc(C(=O)N2CCC(Oc3ccccc3)(C(=O)O)CC2)o1	2.93
CN(Cc1ncc[nH]1)C(=O)C(C)(C)NC(=O)c1cccs1	-3.2
O=C(Nc1ccc2c(c1)OCCO2)N1CCCN(Cc2cccs2)CC1	0.682
Cc1ccc(CN(C)C(=O)c2n[nH]c(N)c2-c2ccccc2)o1	28.7
CCc1nc(C)sc1CN1CC[C@](O)(CC)[C@H](O)C1	-6.34

Compound	cytotoxicity at 70.5 h [%]
COC(=O)C1Cc2nc[nH]c2CN1Cc1ccc(Sc2ncccn2)o1 (stereo unspecified)	-0.897
COc1ccc(-c2n[nH]cc2CN(C)CCCN2CCOCC2)c(F)c1	-3.86
CC(C)(NC(=O)C1CCCN(C2CCCC2)C1)c1nnc(N)s1 (stereo unspecified)	-3.27
CC(=O)N[C@@H]1CN(C(=O)c2csc(C(C)C)n2)C[C@H]1C(C)C	-7.11
Cc1cccc(=O)n1CCCNc1ncnc2c1CCNCC2	-6.31
Cc1cnc(N2CCN(C)CC2)nc1-c1ccnn1C	-13.9
O=C(NCCN1CCNC1=O)c1cc(-c2ccc(O)cc2)n[nH]1	-10.9
COCc1cn(C2CCN(C(=O)Cc3ccsc3)CC2)nn1	-9.06
COc1ncccc1C(=O)N1CCCC1c1nc(-c2ccccc2)no1 (stereo unspecified)	-5.54
CCCSCC(=O)N1CCC2(CC1)CC(c1ccccc1)CN(C)C2 (stereo unspecified)	4.01
c1ccc(CCNc2ncnc3c2CCN(Cc2c[nH]cn2)CC3)cc1	-0.00958
Cc1nc(-c2cccc(N3CCC(N[C@@H]4CCOC4)CC3)c2)cs1	0.567
COCCc1noc(CN2CCC3(CCCO3)CCC2=O)n1 (stereo unspecified)	15.5
NC(=O)NCC(=O)N1CCC2(CC1)c1ccccc1CC2O (stereo unspecified)	-11.6
Cc1noc(-c2ccc(N(C)Cc3cccnc3)nc2)n1	-15.4
CCn1cc(NC(=O)c2cccc(CN3C[C@@H](C)O[C@@H](C)C3)c2)nn1	4.2
CCN1CCN(C(=O)c2cc(-c3ccc(C)o3)n[nH]2)[C@H]2CS(=O)(=O)C[C@H]21	42.7
CC(C)(C)c1ncc2c(n1)CN(c1cc(NCCO)nc(N)n1)C2	-12
COc1ccc(N2CCC(N(C)C(C)C(=O)N(C)C)CC2)cc1 (stereo unspecified)	15.1
CNc1cc(-c2nc(CCN3CCCC3=O)no2)ccn1	12.1
COCC1CCCCN1C(=O)c1cc(-c2cccc(OC)c2)n[nH]1 (stereo unspecified)	-6.73
N#Cc1cccc(N2CCC3(CCC(=O)N(CC(N)=O)C3)CC2)n1	-8.42
COc1cccc2c1OCC(C(=O)NCc1c(C)noc1C)C2 (stereo unspecified)	-7.18

Compound	cytotoxicity at 70.5 h [%]
O[C@]12CCNC[C@H]1CN(c1ccnc3ccccc13)CC2	22.4
CCn1c(N)nc2cc(C(=O)N3CCC(N4CCCC4)CC3)cnc21	-5.99
CC(C)c1cc(C(=O)N2CCN(CC3CC3)[C@@H]3CS(=O)(=O)C[C@@H]32)on1	-0.581
Cn1ccnc1CN1CCCC(CO)(CCc2ccccc2)C1 (stereo unspecified)	-8.1
CCC(NC(=O)c1coc(COc2cccc(F)c2F)n1)C(=O)NC (stereo unspecified)	-9.68
CC(=O)NCCNc1nccc(CCC(F)(F)F)n1	-10.3
CCCC1(CO)CCCN(C(=O)CNC(C)=O)C1 (stereo unspecified)	-10.4
Cc1nnsc1CN(C)C(=O)CN1CC2(CCNCC2)OC1=O	-2.76
CCSCC(C)NCc1ccccc1-n1ccnc1 (stereo unspecified)	-2.53
CN1CCC(c2nnc(CN3CCCC3)n2C2CC2)CC1	-6.39
COc1ccc(C)cc1S(=O)(=O)N[C@H]1CN(C(C)=O)C[C@@H]1C1CC1	-7.75
Cc1cc(N2CCC(O)(CN(C)C)C2)c2cc3c(cc2n1)OCO3 (stereo unspecified)	44.8
Cc1ccc(OC2(C(=O)O)CCN(C(=O)CCc3ccco3)CC2)cc1	-3.25
COCc1cc(NCCc2ccc(S(N)(=O)=O)cc2)n2nccc2n1	-20.7
CCc1cnc(C)nc1N1CCN(C(N)=O)CC1	-12.6
Cc1ccc2nc(CNCCCN3CCCC3=O)cc(O)c2c1	14.6
Cc1ccc(Cl)c(C)c1NC(=O)N1CCCN(Cc2ccccn2)CC1	2.01
COc1ccc(Cl)cc1NCCC(=O)NCCNc1cnccn1	3.74
CC(C)C(=O)NS(=O)(=O)c1ccc(C#N)cc1C(F)(F)F	-2.54
COc1cccc2cc(CNCc3ccc(N4CCCC4)nc3)oc12	16
Cc1noc(C(C)N2CCN(CCN3CCCC3=O)CC2)n1 (stereo unspecified)	-4.25
Cc1ccc(N2CCCN(C(=O)CC3C=CCC3)CC2)nn1 (stereo unspecified)	-4.92
Cc1nc(N2CCN(C(=O)c3ccccc3)CC2)c2cnn(C)c2n1	-0.834

Compound	cytotoxicity at 70.5 h [%]
CC(C)C(C(=O)N1CCCN(c2cccnn2)CC1)n1cncn1 (stereo unspecified)	4.13
Cc1noc(CN(C)Cc2ccc3c(c2)OCO3)n1	12.4
CCNC(=O)NC(=O)CNC(C)(C)c1ccc2c(c1)OCCO2	-5.69
CC(C)(NCC(=O)NCC1CC1)c1ccc2c(c1)OCCO2	15.5
Cc1noc(C)c1CN1CCC(N(C)Cc2nnc(C3CC3)n2C)C1 (stereo unspecified)	-2.84
Cc1nnc(C(C)N2CCCN(Cc3ccc(C#N)cc3)CC2)o1 (stereo unspecified)	-2.73
Cc1cnn(CC2CCCN2Cc2nnc(C)o2)c1 (stereo unspecified)	-2.26
COc1ccccc1N1CCC(CNS(=O)(=O)c2cccc(C#N)c2)C1 (stereo unspecified)	22.7
Cc1nnc(C(C)N2CCN(Cc3ccc(C(F)(F)F)cc3)CC2)o1 (stereo unspecified)	-1.82
c1ccc(Cc2nnc(CN3CCCCC3Cn3cncn3)o2)cc1 (stereo unspecified)	0.659
CCc1noc(CN(Cc2ccc3c(c2)OCO3)C2CCCC2)n1	-10.9
Cc1cccc(-c2noc(CN3CCOCC3C)n2)c1 (stereo unspecified)	-5.27
CC(C)c1nnc(CN2CCCC(c3cc(C(N)=O)[nH]n3)C2)o1 (stereo unspecified)	26.9
CC(C(=O)Nc1ccc(N2CCOCC2)nc1)n1cncn1 (stereo unspecified)	23.7
Cc1nc(C)n(CC2CCCN(Cc3ccc(F)cc3C#N)C2)n1 (stereo unspecified)	-1.49
Cc1cc(C)n(C2CCCN(C(=O)CCc3nccs3)C2)n1 (stereo unspecified)	28.2
CC1COCCN1Cc1nc(-c2ccc(Br)s2)no1 (stereo unspecified)	1.52
Cc1nn(C)c(Cl)c1C1CCCN1C(=O)c1cc(C2CC2)on1 (stereo unspecified)	3.63
COc1c(CNCc2cccc(Cn3ccnc3C)c2)c(C)nn1C	13.2
